Laboratory results as given in the supplement of paper PMC10307832.

Legend:
Assay in all cases: relative viability (nuclei count vs DMSO), 5 days (fraction); higher = more cells survive
[1] = compound: C1=CC2=C(C=C(C(=C2N=C1)O)N=NC3=CC4=C(C=C3)C=C(C=C4)S(=O)(=O)O)S(=O)(=O)O + COc1cccc2cc(-c3nc([C@H]4CC[C@H](C(=O)O)CC4)n4ncnc(N)c34)[nH]c12 [OSI-027] (partner 0.5 µM)
Outline: (§1)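 Dosing by pin tool came one day after lung cancer cell lines were seeded in 1536-well plates, using either one drug or a fixed anchor-drug dose plus five library-drug doses (not always all listed) in √10 steps. After 5 days, nuclei were counted on 4× images. Relative viability is treated-well nuclei count divided by vehicle-well nuclei count, and values are medians of duplicate plates.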

AT-7519 + Luminespib = compound: O=C(NC1CCNCC1)c1n[nH]cc1NC(=O)c1c(Cl)cccc1Cl [AT-7519] + CCNC(=O)c1noc(-c2cc(C(C)C)c(O)cc2O)c1-c1ccc(CN2CCOCC2)cc1 [Luminespib] (partner 0.01 µM)
Outline: as §1

AT-7519 + Lapatinib = compound: O=C(NC1CCNCC1)c1n[nH]cc1NC(=O)c1c(Cl)cccc1Cl [AT-7519] + CS(=O)(=O)CCNCc1ccc(-c2ccc3ncnc(Nc4ccc(OCc5cccc(F)c5)c(Cl)c4)c3c2)o1 [Lapatinib] (partner 2 µM)
Outline: as §1

AT-7519 + AZD7762 = compound: O=C(NC1CCNCC1)c1n[nH]cc1NC(=O)c1c(Cl)cccc1Cl [AT-7519] + NC(=O)Nc1cc(-c2cccc(F)c2)sc1C(=O)N[C@H]1CCCNC1 [AZD7762] (partner 0.2 µM)
Outline: as §1

| Cell Line | relative viability ([1]; first compound 0.08 µM) | relative viability ([1]; first compound 0.253 µM) | relative viability ([1]; first compound 0.8 µM) | relative viability ([1]; first compound 2.53 µM) | relative viability ([1]; first compound 8 µM) | relative viability (AT-7519 + Luminespib; first compound 0.01 µM) | relative viability (AT-7519 + Luminespib; first compound 0.03162 µM) | relative viability (AT-7519 + Luminespib; first compound 0.3162 µM) | relative viability (AT-7519 + Luminespib; first compound 1 µM) | relative viability (AT-7519 + Lapatinib; first compound 0.01 µM) | relative viability (AT-7519 + Lapatinib; first compound 0.03162 µM) | relative viability (AT-7519 + Lapatinib; first compound 0.3162 µM) | relative viability (AT-7519 + Lapatinib; first compound 1 µM) | relative viability (AT-7519 + AZD7762; first compound 0.01 µM) | relative viability (AT-7519 + AZD7762; first compound 0.03162 µM) | relative viability (AT-7519 + AZD7762; first compound 0.3162 µM) | relative viability (AT-7519 + AZD7762; first compound 1 µM) |
| --- | --- | --- | --- | --- | --- | --- | --- | --- | --- | --- | --- | --- | --- | --- | --- | --- | --- |
| NCI-H1755 | 0.705 | 0.74 | 0.786 | 0.689 | 0.703 | 0.59 | 0.38 | 0.345 | 0.416 | 1.02 | 1.03 | 0.948 | 1.11 | 0.427 | 0.461 | 0.629 | 0.428 |
| NCI-H1792 | 0.866 | 0.669 | 0.726 | 0.689 | 0.629 | – | 0.453 | 0.359 | 0.613 | 0.673 | 0.845 | 0.98 | 0.94 | 0.759 | 0.554 | 0.571 | 0.467 |
| NCI-H1793 | 0.285 | 0.289 | 0.246 | 0.264 | 0.314 | 0.387 | 0.161 | 0.385 | 0.119 | 0.554 | 0.713 | 0.421 | 0.226 | 0.578 | 0.573 | 0.409 | 0.543 |
| NCI-H1915 | 0.59 | 0.667 | 0.649 | 0.634 | 0.628 | 0.687 | 0.798 | 0.729 | 0.62 | 1.02 | 0.987 | 0.863 | 0.8 | 0.704 | 0.689 | 0.773 | 0.782 |
| NCI-H1944 | 0.411 | 0.423 | 0.414 | 0.415 | 0.425 | 0.846 | 0.775 | 0.677 | 0.554 | 0.807 | 0.775 | 0.84 | 0.864 | 0.528 | 0.472 | 0.699 | 0.479 |
| NCI-H1975 | 0.784 | 0.721 | 0.767 | 0.68 | 0.784 | 0.21 | 0.176 | 0.317 | 0.126 | 0.861 | 0.817 | 0.447 | 0.158 | 0.691 | 0.744 | 0.76 | 0.638 |
| NCI-H1993 | 0.553 | 0.547 | 0.556 | 0.601 | 0.584 | 0.788 | 0.823 | 0.844 | 0.388 | 0.808 | 0.787 | 0.632 | 0.699 | 0.671 | 0.637 | 0.736 | 0.38 |
| NCI-H2085 | 0.901 | 0.716 | 0.716 | 0.974 | 0.842 | 0.528 | 0.405 | 0.489 | 0.515 | 0.845 | 0.776 | 0.713 | 0.488 | 0.977 | 0.984 | 0.986 | 1.02 |
| NCI-H2087 | 0.563 | 0.536 | 0.477 | 0.61 | 0.682 | 0.178 | 0.16 | 0.141 | 0.116 | 1.2 | 1.11 | 0.998 | 0.185 | 1.48 | 1.13 | 1.49 | 0.58 |
| NCI-H2126 | 0.723 | 0.662 | 0.588 | 0.658 | 0.632 | 1.02 | 0.916 | 0.805 | 0.297 | 0.804 | 0.752 | 0.683 | 0.857 | 1 | 1.1 | 1.04 | 1.13 |
| NCI-H2170 | 0.958 | 0.676 | 0.666 | 0.756 | 0.689 | 0.398 | 0.636 | 0.807 | 0.599 | 0.289 | 0.305 | 0.278 | 0.249 | 0.906 | 0.892 | 0.954 | 0.75 |
| NCI-H2347 | 0.505 | 0.532 | 0.5 | 0.341 | 0.392 | 0.83 | 0.268 | 0.392 | 0.39 | 1.04 | 1.06 | 0.989 | 0.935 | 0.625 | 0.843 | 0.725 | 0.469 |
| NCI-H2405 | 0.649 | 0.599 | 0.602 | 0.644 | 0.6 | 0.713 | 0.718 | 0.592 | 0.281 | 1.04 | 1.04 | 1.03 | 0.719 | 0.732 | 0.724 | 0.683 | 0.527 |
| NCI-H3122 | 1.09 | 0.919 | 0.899 | 0.856 | 0.922 | 0.104 | 0.0901 | 0.112 | 0.0695 | 1.02 | 0.986 | 1.08 | 0.701 | 1.01 | 1.11 | 1.02 | 0.752 |
| PC-3 [JPC-3] | 0.815 | 0.71 | 0.791 | 0.778 | 0.769 | 0.515 | 0.558 | 0.694 | 0.623 | 0.529 | 0.441 | 0.416 | 0.52 | 0.908 | 0.844 | 0.671 | 0.992 |
| PC-14 | 1.16 | 0.861 | 0.819 | 0.833 | 0.837 | 0.196 | 0.151 | 0.151 | 0.111 | 0.269 | 0.302 | 0.313 | 0.296 | 0.416 | 0.261 | 0.38 | 0.44 |
| RERF-LC-KJ | 0.664 | 0.624 | 0.593 | 0.608 | 0.588 | 1.18 | 1.21 | 0.856 | 0.311 | 0.847 | 0.922 | 0.86 | 0.851 | 0.87 | 0.698 | 1.18 | 1.03 |
